Measurements: patent US12012408B2, “Purine compounds and method for the treatment of cancer” (THE ROYAL INSTITUTION FOR THE ADVANCEMENT OF …, priority 2018, dated 2024)

Tests used:
[1] = test system: MDA-MB-231 and BT-20 cells; test: MTT assay (short-term cell viability); format: cell-based; conditions: time-dependent, SLLN-15 compared with vorinostat; FIG. 6A
Experimental: The short-term effects of SLLN-15 on tumor cell growth were assessed using the 3-(4,5-dimethylthiazol-2-yl)-2,5-diphenylte-trazolium bromide (MTT; Sigma) assay. Cells were seeded at a density of 5000 cells/well in a 96-well plate and treated with SLLN-15 as indicated concentration or DMSO for 24 hours. MTT solution (5 mg/ml in RPMI 1640 medium) was added (20 μl/well), and plates were incubated for 4 hours in dark at 37° C., then the purple formazan crystals were then dissolved in 100 μl MTT solvent (4 mM HCl and 0.1% NP-40 in isopropanol). The plates were read on FLUOstar OPTIMA microplate reader (BMG Labtech, Ortenberg, Germany) at 570 nm. Assays were performed in triplicate on three independent experiments.

[2] = test system: cleaved-PARP, cleaved-caspase 3, Bcl-2 in MDA-MB-231 and BT-20 cells; test: Western blot of indicators of apoptosis; format: cell-based; conditions: FIG. 6B
Experimental: Sub-confluent cells were washed with PBS, lysed in RIPA buffer (50 mM Tris-HCl at pH7.5, 150 mM sodium chloride, 1% tritonX-100, 0.1% SDS, 2 mM EDTA and 25 mM sodium fluoride) supplemented with 1 mM PMSF and protease inhibitor cocktail (Roche) for 10 min on ice and centrifuged (13,000 rpm at 4° C. for 20 min) to separate cell lysate. Cell lysate (50 μg protein, as measured by the Bradford protein assay) was then added with SDS sample buffer (Tris at pH 6.8, 20% glycerol, 5% SDS, bromophenol blue and β-mercaptoethanol) and boiled for 5 min. Samples were then resolved through 13% SDS-PAGE gels, transferred to nitrocellulose membrane, blotted with specific first antibodies at different dilution in cold room overnight, and then amplified with horseradish peroxidase-conjugated secondary antibodies for 1 hour in room temperature and enhanced by chemiluminescence detection system.
Considering apoptosis is the major form of cell death induced by chemotherapeutic agent, we seek to identify whether the anticancer effect of SLLN-15 was mediated via apoptosis in breast cancer cells.

SMILES: O=C(CCCCCCC(=O)Nc1ccccc1)NO [vorinostat, suberoylanilide hydroxamic acid, reference compound]
- cell viability (MTT) [1]: markedly decreased cell viability
- indicators of apoptosis: upregulation of cleaved-PARP and cleaved-caspase 3, downregulation of Bcl-2 [2]: only detected in vorinostat treated cells
